For test [1], the system named is mammalian polyamine carrier. As to the kind of experiment: Determination of polyamine uptake activity: inhibition of diamine and polyamine transport in T-47D cells. The settings on record: for Ki: mean±SD; for Km: substrate itself. It counts as cell-based, human. The protocol:
The rate of diamine and polyamine transport was determined in T-47D and ZR-75-1 cells incubated in serum-free RPMI 1640 medium as previously described (U.S. Pat. No. 6,083,496; Covassin et al. (1999) Bioorg. Med. Chem. Lett. 9, 1709-1714), using 20 μM [^3H]putrescine (179 Ci/mol), 5 μM [^3H]spermidine (246 Ci/mol) and 3 μM [^14C]spermine (300-400 mCi/mol) respectively, as substrates for a 20-min assay period. Uptake activity was expressed per amount of DNA as fluorometrically determined using 3,5-diaminobenzoic acid (Simard et al. (1990) Endocrinology 126, 3223-3231). Kinetic parameters of polyamine transport inhibition for the transport antagonists were determined by Lineweaver-Burke analysis of uptake activity in the presence of 0.1 μM [^3H]putrescine, 0.03 μM [^3H]spermidine, and 0.01 μM [^14C]spermine plus increasing concentrations of nonradioactive substrate. For competitive inhibitors, Ki values were estimated by iterative curve fitting for sigmoidal equations describing transport rates in the presence of increasing concentrations of antagonist, using the Cheng-Prusoff equation for competitive inhibition (U.S. Pat. No. 6,083,496).
The ability of BSD and BNSD compounds to inhibit uptake of the main natural substrates of the mammalian polyamine carrier, namely putrescine, spermidine and spermine, was evaluated using T-47D human breast cancer cells (Table 1).
Data are presented as the mean±SD of at least two independent determinations of IC50 values, each based on triplicate determinations of uptake velocity at increasing inhibitor concentrations.
The potency of the polyamines and their xylylated dimers as competitive inhibitors of spermidine transport was evaluated in the T-47D human breast cancer cell line (Table 2).

The subject of test [2] is CHO-K1 cells. As to the kind of experiment: Determination of intracellular polyamine contents in CHO-K1 cells. The class given is cell-based, Chinese hamster. The procedure:
At the indicated time, cells were harvested for the determination of putrescine (A), spermidine (B) and spermine contents (C). Data are presented as the mean±SD for triplicate cultures from one representative experiment; […] At the indicated time intervals, medium was removed, cell monolayers were rinsed twice: with 10 ml of ice-cold Ca^2+/Mg^2+-free phosphate-buffered saline (PBS) (2.7 mM KCl, 1.5 mM KH2PO4, 8.1 mM Na2HPO4, 137 mM NaCl), and cells were harvested by low-speed centrifugation (2400 g for 5 min at 4° C.). […] Polyamine content was then determined by ion-pair reverse phase HPLC with fluorometric detection after post-column derivatization with o-phthaldialdehyde as described (U.S. Pat. No. 6,083,496). […] Pat. No. 6,083,496).

Test [3] relates to MDA-MB-231 human breast cancer xenograft. The test is described as follows: MDA-MB-231 human breast cancer xenograft in nude mice. The class given is in vivo, immunodeficient CD-1 mice. The settings on record: 39 d. The protocol:
In particular, the mice have been treated with the following compounds: BNSD-X (1% w/v) (●), 0.3 (w/v) DFMO (□), 0.3% DFMO+BNSD-X (▪), 1% (w/v) DFMO (Δ), or 1% DFMO+BNSD-X (▴). Drugs were dissolved in drinking water which was given ad libitum to the animals. Control mice (∘) received distilled water only;
In particular, the mice have been treated with the following compounds: BNSD-X (1% w/v) (●), 0.3 (w/v) DFMO (□), 0.3% DFMO+BNSD-X (▪), 1% (w/v) DFMO (Δ), or 1% DFMO+BNSD-X (▴). Drugs were dissolved in drinking water which was given ad libitum to the animals. Control mice (∘) received distilled water only; and
In particular, these compounds are BNSD-X (1% w/v), 0.3 (w/v) DFMO, 0.3% DFMO+BNSD-X, 1% (w/v) DFMO, or 1% DFMO+BNSD-X Drugs were dissolved in drinking water which was given ad libitum to the animals. Control mice received distilled water only.
For human xenograft experiments, athymic CD-1 mice were inoculated with 5×10^6 MDA-MB-231 human breast cancer cells (grown in tissue culture incubators to mid-exponential phase) in both sides of the inguinal mammary fat pad. After ˜2 weeks, when the tumor had reached a diameter ˜4 mm (as measured with a caliper), control mice were paired to treated ones in accordance with tumor volume (time zero). Animals were allowed free access to water containing 0, 0.3 or 1% DFMO (w/v), plus or minus 1% (w/v) BNSD-X (7 mice/experimental group). Tumor volume (V) was measured twice weekly with a caliper in 2 dimensions using the approximation V=(L×w^2)/2, where L is the length and w is the width of the xenograft (Bandyopadhyay et al., (2002) Cancer Res. 62:4690-4695). Animals were sacrificed after 39 d (i.e. when tumor size in control mice had reached about 500 mm^3). Mammary tumors were be excised and weighed.
The efficacy of BNSD-X as a chemotherapeutic agent was assessed in the MDA-MB-231 model of human breast cancer xenograft in the nude mouse, a model which is known to be sensitive to polyamine depletion by DFMO (Weeks et al., (2000) Exp Cell Res. 261:293-302). For that purpose, MDA-MB-231 cells were injected in the left and right mammary fat pads of immunodeficient CD-1 mice. Mice were then allowed to drink either BNSD-X at the optimal concentration (1%, w/v), as well as DFMO at either 0.3% or 1% (w/v) plus or minus 1% BNSD-X for 39 days before sacrificing the animals and measuring total final tumor mass (FIG. 12-14). The BNSD-X solution alone or with 0.3% DFMO led to a slight (˜7%) reduction of body weight, which was attenuated by the addition of 1% DFMO (FIG. 13) However, this effect of body weight could largely be accounted on the decreased tumor burden in the BNSD-X treated animals (FIG. 14). […]

Setting [4] is: T-47D breast cancer cells, read-out: Ki, inhibition of [3H]putrescine uptake.
Where [5] appears, read: T-47D breast cancer cells, read-out: Ki, inhibition of [3H]spermidine uptake.
Where [6] appears, read: T-47D breast cancer cells, read-out: Ki, inhibition of [14C]spermine uptake.
Setting [7] is: T-47D human breast cancer cells, calculated from IC50, read-out: Ki for the inhibition of spermidine transport (Table 2).

Where two headings read alike, the source gives them in different places.

`NCCCN(CCCN)CCN(CCCN)CCCN` [18a]: the Ki (in general, the dissociation constant of the complex between target and ligand, obtained from inhibition or displacement) stood at 1200 ± 200 nM in test [1] (setting [4]), 17300 ± 1400 nM in test [1] (setting [5]) and 20400 ± 6900 nM in test [1] (setting [6]).

Turning to `NCCCCN(CCCN)CCN(CCCN)CCCCN` [18b], the values for the Ki in test [1] (setting [4]), in test [1] (setting [5]) and in test [1] (setting [6]) were 650 ± 70 nM, 3000 ± 500 nM and 5900 ± 1100 nM, respectively.

On to `NCCCN(CCCN)CCCCN(CCCN)CCCN` [20a], for which the figures for the Ki in test [1] (setting [4]), in test [1] (setting [5]) and in test [1] (setting [6]) were 720 ± 200 nM, 4900 ± 100 nM and 4300 ± 700 nM, respectively.

For `NCCCCN(CCCN)CCCCN(CCCN)CCCCN` [20b], the inhibition constant (Ki) in test [1] (setting [4]) worked out at 520 ± 60 nM; in test [1] (setting [5]), 2400 ± 400 nM; in test [1] (setting [6]) it was 6200 ± 600 nM.

As to `NCCCN(CCCN)CCCCCN(CCCN)CCCN` [21a], the Ki in test [1] (setting [4]) was 540 ± 110 nM; in test [1] (setting [5]) it was 3100 ± 500 nM; in test [1] (setting [6]), 2600 ± 700 nM.

Consider `NCCCCN(CCCN)CCCCCN(CCCN)CCCCN` [21b], for which the results for the Ki in test [1] (setting [4]), in test [1] (setting [5]) and in test [1] (setting [6]) were 570 ± 100 nM, 830 ± 80 nM and 8000 ± 1100 nM, respectively.

On to `NCCCN(CCCN)CCCCCCN(CCCN)CCCN` [22a], for which the inhibition constant Ki in test [1] (setting [4]) was determined as 720 ± 180 nM; in test [1] (setting [5]), 2400 ± 300 nM; in test [1] (setting [6]), 820 ± 100 nM.

As to `NCCCCN(CCCN)CCCCCCN(CCCN)CCCCN` [22b], the inhibition constant Ki in test [1] (setting [4]) came out at 910 ± 110 nM; in test [1] (setting [5]) it was 690 ± 160 nM; in test [1] (setting [6]), 6300 ± 800 nM.

Consider `NCCCN(CCCN)CCCCCCCCN(CCCN)CCCN` [23a], for which the inhibition constant (Ki) was found to be 660 ± 60 nM in test [1] (setting [4]), 7500 ± 1600 nM in test [1] (setting [5]) and 7000 ± 1000 nM in test [1] (setting [6]).

For the compound `NCCCCN(CCCN)CCCCCCCCN(CCCN)CCCCN` [23b], the Ki stood at 440 ± 70 nM in test [1] (setting [4]), 3000 ± 200 nM in test [1] (setting [5]) and 3600 ± 700 nM in test [1] (setting [6]).

As for `NCCCN(CCCN)CCCCCCCCCCN(CCCN)CCCN` [24a], the inhibition constant Ki in test [1] (setting [4]) worked out at 1600 ± 400 nM; in test [1] (setting [5]), 1500 ± 200 nM; in test [1] (setting [6]), 2400 ± 700 nM.

Consider `NCCCCN(CCCN)CCCCCCCCCCN(CCCN)CCCCN` [24b], for which the Ki in test [1] (setting [4]) amounted to 140 ± 10 nM; in test [1] (setting [5]), 1200 ± 200 nM; in test [1] (setting [6]), 1900 ± 300 nM.

`NCCCN(C/C=C/CN(CCCN)CCCN)CCCN` [25a]: the Ki in test [1] (setting [4]) worked out at 100 ± 10 nM; in test [1] (setting [5]) it was 1800 ± 100 nM; in test [1] (setting [6]), 1500 ± 100 nM.

In the case of `NCCCCN(C/C=C/CN(CCCN)CCCCN)CCCN` [25b], the figures for the inhibition constant (Ki) in test [1] (setting [4]), in test [1] (setting [5]) and in test [1] (setting [6]) were 270 ± 40 nM, 2000 ± 500 nM and 1600 ± 200 nM, respectively.

With `NCCCN(CC#CCN(CCCN)CCCN)CCCN` [26a], the results for the Ki in test [1] (setting [4]), in test [1] (setting [5]) and in test [1] (setting [6]) were 2600 ± 400 nM, 25600 ± 4000 nM and 12800 ± 2200 nM, respectively.

With `NCCCCN(CC#CCN(CCCN)CCCCN)CCCN` [26b], the inhibitory constant (Ki) was determined as 1900 ± 400 nM in test [1] (setting [4]), 16900 ± 2000 nM in test [1] (setting [5]) and 27700 ± 3200 nM in test [1] (setting [6]).

On to `NCCCN(CCCN)Cc1cccc(CN(CCCN)CCCN)c1` [27a], for which the inhibition constant (Ki) turned out to be 640 ± 80 nM in test [1] (setting [4]), 3000 ± 500 nM in test [1] (setting [5]) and 5700 ± 1300 nM in test [1] (setting [6]).

`NCCCCN(CCCN)Cc1cccc(CN(CCCN)CCCCN)c1` [27b]: the inhibition constant Ki in test [1] (setting [4]) stood at 190 ± 50 nM; in test [1] (setting [5]) it was 1600 ± 100 nM; in test [1] (setting [6]), 2400 ± 300 nM.

Regarding `NCCCNCCCCN(CCCN)Cc1ccc(CN(CCCN)CCCCNCCCN)cc1` [BSM-X], the “fold lower apparent Ki for spermidine uptake inhibition relative to the spermine monomer” value in test [1] (T-47D cells) is given as 2 fold. Further, the Ki in test [1] (setting [7]) is 1100 ± 100 nM.

As for `NCCCNCCCC(NCCCN)C(=O)NCCSSCCNC(=O)C(CCCNCCCN)NCCCN` (stereo not shown) [DESC, 2,2′-dithiobis(N-ethyl-spermine-5-carboxamide), reference compound], the inhibition constant (Ki) is 3100 ± 400 nM in test [1] (setting [4]), 12600 ± 1400 nM in test [1] (setting [5]) and 15900 ± 4000 nM in test [1] (setting [6]).

Take `NCCC[C@](N)(C(=O)O)C(F)F` [DFMO, α-difluoromethylornithine, reference compound]: the “decrease of the intracellular spermidine pool by DFMO alone” value in test [2] (after a 24-h lag period, up to 4 days) is 80%. Also, the “effect on intracellular putrescine content” value in test [2] (single agent) was “rapidly led to putrescine depletion”. For the same compound, the “effect on intracellular spermine content” value in test [2] (up to 4 days) is on record as “little effect on spermine content”. Besides, the “reduction of tumor burden” value in test [3] (DFMO alone (0.3%)) came out at 50±6%. The “growth inhibition (tumor)” value in test [3] (DFMO alone (1%)) was 73±7%.

For the compound `NCCCCN` [Putrescine, 1,4-diaminobutane, reference compound], the Km (in general, the concentration of substrate that gives half-maximal velocity) in test [1] (T-47D breast cancer cells, read-out: Km for [3H]putrescine uptake) turned out to be 7.4 ± 1.1 µM. Further, the Ki in test [1] (setting [7]) was greater than 500000 nM.

Consider `NCCCNCCCCNCCCN` [Spermine, reference compound], for which the Ki in test [1] (setting [4]) is 650 ± 120 nM; in test [1] (setting [5]), 920 ± 80 nM; in test [1] (setting [7]), 2100 ± 200 nM. In test [1] (T-47D breast cancer cells, read-out: Km for [14C]spermine uptake), the Michaelis constant (Km) amounted to 2.7 ± 0.4 µM.

The values above are taken from US7425579B2, “Methods for inhibiting activity of polyamine transporters” (Universite Laval, priority 1998, dated 2008).
